These results are taken from US8822698B2, “Aminoacid derivatives, their process of preparation and their therapeutical uses as inhibitors of oncogenic signals by the Met family” (Universite D'Aix-Marseille, priority 2009, dated 2014).

SMILES strings stand for the structures. pIC50: −log10 of the molar value. Where two headings read alike, the source gives them in different places.

One data set deals with MDCK cells. In words: Toxicity observed in the cell scattering screening. It is filed as cell-based. How it is done:
(§1) For scattering assays, MDCK cells were pre-incubated with compounds for 2 hours at 0.1-100 μM concentrations at 37° C. in a humidified atmosphere of 5% CO2, followed by 24 hr stimulation with 20 ng/ml HGF (R&D Systems), as previously described (Patane et al., Biochem Biophys Res Commun 375, 184-189, 2008). The cells were further incubated at 37° C. in an atmosphere of 5% CO2 for 24-48 hours, washed with phosphate-buffered saline (PBS; Gibco BRL), and fixed in PFA (Sigma). The quantification of scattering response was performed by counting the number of cells with scattered morphology in 30 independent colonies. The […] corresponds to the concentration of compounds leading to a 50% inhibition of Met-triggered cell scattering. Active compounds were assayed to impair scattering response also on human breast MCF10A cells following the same procedure. For survival assays, GTL-16, HepG2 and U-87 cells were cultured in serum-free media for 24 hours prior to compound addition for 48 hours. Viability was assessed with the Cell Titer Glo Luminescent Assay (Promega). For in vitro tumorigenesis, soft agar growth assays were preformed using GTL-16, HepG2, and U-87 cells, as previously described (Patane et al., Cancer Res 66, 4750-4757, 2006).
Compounds of examples 1 (XIII), 2 (XIV), 4 (XVI), 5 (XVII), and 6 (XVIII) in particular elicit inhibitory activity on Met-triggered cell scattering. […] The SU11274 (Met inhibitor; Sugen) was used as reference compound. […] These findings were further supported by analysing the inhibitory activity of compounds on breast cells. […] Altogether, these studies identify a new class of compounds of general formula (I), which are able to interfere with Met-triggered cell scattering.

The test system of another data set is HepG2 cells. Briefly: Soft agar anchorage-independent growth (in vitro tumorigenesis), HepG2. The conditions noted are these: Homo sapiens, read-out: HepG2 IC 50. It is filed as cell-based. The procedure: (§2) MDCK cells were grown in Dulbecco's modified Eagle's medium (DMEM) (Gibco BRL) containing 4 mM L-glutamine and supplemented with 2% (v/v) foetal bovine serum (Gibco BRL), 100 U/mL penicillin, and 100 μg/mL streptomycin. Cells were plated at a density of 1000 cells per well in 24-well microplates and allowed to settle overnight at 37° C. in a humidified atmosphere of 5% CO2 prior to treatments. MCF10A human breast cells, MDA-MB231 human breast cancer cells, GTL-16 human gastric carcinoma cells, HepG2 human hepatocellular carcinoma cells, U-87 human glioblastoma-astrocytoma cells and LLC Lewis lung carcinoma cells were grown in RPMI medium (Gibco BRL) containing 4 mM L-glutamine and supplemented with 2% (v/v) foetal bovine serum (Gibco BRL), 100 U/mL penicillin, and 100 μg/mL streptomycin and kept at 37° C. in a humidified atmosphere of 5% CO2.
For scattering assays, MDCK cells were pre-incubated with compounds for 2 hours at 0.1-100 μM concentrations at 37° C. in a humidified atmosphere of 5% CO2, followed by 24 hr stimulation with 20 ng/ml HGF (R&D Systems), as previously described (Patane et al., Biochem Biophys Res Commun 375, 184-189, 2008). […] The quantification of scattering response was performed by counting the number of cells with scattered morphology in 30 independent colonies. […] Viability was assessed with the Cell Titer Glo Luminescent Assay (Promega). […]

In data set [1] the test system is Met phosphorylation, HepG2 cells. In words: Met phosphorylation upon HGF stimulation in HepG2 cells. It is filed as cell-based, human. The procedure:
After starvation, cells were pretreated with inhibitors, then stimulated with HGF, and total extracts were analyzed as described (Maina et al., Mol Cell 7, 1293-1306, 2001). Antibodies used were anti-tubulin (Sigma), anti-phospho Y1234-1235-Met, anti-Akt, anti-phospho-Akt, anti-phospho-Gab1, anti phosphor-ErbBs, anti-phospho-PDGFR, anti-PDGFRs, anti-ERKs (Cell Signaling), anti-ErbBs, anti-Met (Santa Cruz).
Activation of Met by HGF can be biochemically evaluated by following its phosphorylation levels and activation of downstream targets. We started to biochemically characterise the inhibitory properties of identified compounds by following Met phosphorylation and its downstream targets in HepG2 cells. […] These findings were further supported using other cell lines, such as MDA-MB231 human breast cancer cells (FIG. 2).

The subject of data set [2] is Met-triggered cell scattering, MDCK cells. Briefly: HGF-induced MDCK cell scattering assay. It is filed as cell-based. Particulars: Canis lupus familiaris. How it is done:
as §2, §1
Compounds were first submitted to a biological screening of cell motility, namely scattering response. MDCK epithelial cells acquire a “scattered phenotype” following stimulation by the Met ligand, HGF (Chan et al., J Biomol Screen. 13, 847-854, 2008; Corso et al., Trends Mol Med 11, 284-292, 2005; Patane et al., Biochem Biophys Res Commun 375, 184-189, 2008), allowing direct evaluation of compounds on Met functions. The Met inhibitor […] was used as control in all assays (Schiering et al., Proc Natl Acad Sci USA 100, 12654-12659, 2003).

Data set [3] deals with GTL-16 cells. In words: Soft agar anchorage-independent growth (in vitro tumorigenesis), GTL-16. It is filed as cell-based, human. Particulars: Homo sapiens; soft agar growth, GTL-16. The procedure: as §2
as §1, with “2006). […]” for “2006).”

The test system of data set [4] is GTL-16 cells. The conditions noted are these: Zou et al., 2007; cited from earlier work.
Setting [5] is: MDCK cells, 20 ng/ml HGF, read-out: IC50 scattering inhibition.

In the data set on MDCK cells (Table 1, scattering screening), `Cc1cc(C)cc(CC(=O)N[C@@H](Cc2ccccc2)C(=O)Nc2ccc(-c3cn4c(n3)sc3ccccc34)cc2)c1` [Example 1, (S)-2-(3,5-dimethylphenylacetamido)-3-phenyl-N-[4-(imidazo[2,1-b]benzothiazol-2-yl)phenyl]propanamide] came in with a Toxicity greater than 100 µM. Besides, in the data set with HepG2 cells, the pIC50 was 5.56. Besides, the Met phosphorylation result in data set [1] was “significantly reduced”.
In the data set with MDCK cells (Table 1, scattering screening), `Cc1cc(C)cc(CC(=O)N[C@H](Cc2ccccc2)C(=O)Nc2ccc(-c3cn4c(n3)sc3ccccc34)cc2)c1` [Example 2, (R)-2-(3,5-dimethylphenylacetamido)-3-phenyl-N-[4-(imidazo[2,1-b]benzothiazol-2-yl)phenyl]propanamide] returned a Toxicity greater than 100 µM.
For `O=C(Cc1cc(C(F)(F)F)cc(C(F)(F)F)c1)N[C@H](Cc1ccccc1)C(=O)Nc1ccc(-c2cn3c(n2)sc2ccccc23)cc1` [Example 5, (R)-2-(3,5-bis(trifluoromethyl)phenylacetamido)-3-phenyl-N-[4-(imidazo[2,1-b]benzothiazol-2-yl)phenyl]propanamide], the pIC50 in data set [2] (setting [5]) is 6.69; with GTL-16 cells [3], 5.92. Moreover, the Toxicity in the data set with MDCK cells (Table 1, scattering screening) was greater than 50 µM.
With `O=C(Cc1cc(F)cc(F)c1)N[C@@H](Cc1ccccc1)C(=O)Nc1ccc(-c2cn3c(n2)sc2ccccc23)cc1` [Example 6], in the data set with MDCK cells (Table 1, scattering screening), the Toxicity was greater than 100 µM.
Consider `Cc1[nH]c(/C=C2\C(=O)Nc3ccc(S(=O)(=O)N(C)c4cccc(Cl)c4)cc32)c(C)c1C(=O)N1CCN(C)CC1` [SU11274, (3Z)—N-(3-Chlorophenyl)-3-({3,5-dimethyl-4-[(4-methylpiperazin-1-yl)carbonyl]-1H-pyrrol-2-yl}methylene)-N-methyl-2-oxo-2,3-dihydro-1H-indole-5-sulfonamide, reference compound], for which the pIC50 in data set [2] (setting [5]) is 6.60. For the same compound, the “Soft-agar growth of GTL-16 cells” value with GTL-16 cells [4] was “impaired”.
On to `C[C@@H](NC(=O)Cc1cc(F)cc(F)c1)C(=O)Nc1ccc(-c2cn3c4c(sc3n2)CCCC4)cc1` [reference compound], for which the pIC50 in data set [2] (MDCK, comparative compound, same test, read-out: Scattering inhibition) is 5.00. Further, the Toxicity result in the data set on MDCK cells (comparative compound, toxic at this concentration) is “at 100 μM”.
